Where “and” joins values, the source holds several entries; their conditions need not be identical. Identical values can stand only once.
Test system: ApoE knockout (EKO) mice
Assay: standard pharmacological test procedure for atherosclerosis in ApoE knockout (EKO) mice: plasma lipids and aortic arch lesions
Assay type: in vivo
Conditions: for Aortic Atherosclerosis (% lesion involvement as assessed by lpipd staining): aortic arch, Oil Red O; for Aortic Atherosclerosis (% lesion involvement as assessed by lpipd staining) / HDL-C / LDL-C / Total Cholesterol / Triglycerides / VLDL-C: Western Diet, mean ± S.E.; for HDL-C / LDL-C / Total Cholesterol / Triglycerides / VLDL-C: plasma
Source text: The ability of the rapamycins of this invention to treat or inhibit cardiovascular disease or peripheral vascular disease was confirmed in a standard pharmacological test procedure using ApoE knockout (EKO) mice, which are a well accepted animal model of human atherosclerosis. In this test procedure, rapamycin was used a representative example of a rapamycin of this invention. The procedure used, and results obtained are briefly summarized below.
Male EKO mice, 4-6 weeks of age, were housed in shoe-box cages and were allowed ad lib food and water. The animals were randomized by weight into 5 groups (N=12-15 mice per group) and were fed Purina Rodent Chow for the first week of the study. Also during this period as well as the remaining 12 weeks of the study, the animals were dosed every 2 days with 0, 1, 2, 4 or 8 mg/kg rapamycin s.c. using 2% Tween-80, 1% carboxymethyl cellulose as the vehicle and Control. The animal diet was switched to a casein-based Western Diet for week 2 to week 13 of the study. At the end of the study period, the animals were euthanized, plasma samples obtained, and the hearts perfused first with saline, then with 10% formalin. Total cholesterol and triglycerides were determined using enzymatic methods with commercially-available kits from Boehringer Mannheim and Wako Biochemicals, respectively, and the Boehringer Mannheim Hitachii 911 Analyzer (Boehringer Mannheim Diagnostic Laboratory Systems, Indianapolis, Ind.). Separation and quantification of plasma lipoproteins were performed using FPLC size fractionation. Briefly, […] of serum was filtered and injected into two Superose 6 columns (Amersham Pharmacia Biotech, UK, Ltd) connected in series and eluted at a constant flow rate with 1 mM sodium EDTA and 0.15 M NaCl. Areas of each curve representing VLDL, LDL and HDL were integrated using Millennium software (Waters Technologies Corporation), and each lipoprotein fraction was quantified by multiplying the Total Cholesterol value by the relative percent area of each respective peak. The aortas were carefully isolated and remained in the formalin fixative for 48-72 hours before handling. Atherosclerotic lesions were identified by Oil Red O staining, a well accepted procedure for identifying accumulation of neutral lipids such as cholesterols and triglycerides. The vessels were destained, and then imaged using a Nikon SMU800 microscope fitted with a Sony 3CCD video camera system in concert with IMAQ Configuration Utility (National Instrument) as the image capturing software. The lesions were quantified along the aortic arch using a custom threshold utility software package designed by Robert Coll (Coleman Technologies). Automated lesion assessment was performed on the vessels using the threshold function of the program, specifically on the region contained within the aortic arch from the proximal edge of the Right Common Carotid artery to the distal edge of the Left Subclavian artery. Aortic atherosclerosis data were expressed as percent lesion (lipid) involvement strictly within this defined luminal area. Statistical significance between the Control and treated groups was determined using the Dunnett's Test at 1% significance level (p<0.01).

CO[C@H]1C[C@@H]2CC[C@@H](C)[C@@](O)(O2)C(=O)C(=O)N2CCCC[C@H]2C(=O)O[C@H]([C@H](C)C[C@@H]2CC[C@@H](O)[C@H](OC)C2)CC(=O)[C@H](C)/C=C(\C)[C@@H](O)[C@@H](OC)C(=O)[C@H](C)C[C@H](C)/C=C/C=C/C=C/1C [rapamycin]
area of aorta containing fat (1, 2, 4, or 8-mg/kg qod for 12 weeks): 12-16%
Aortic Atherosclerosis (% lesion involvement as assessed by lpipd staining) (1 mg/kg s.c. every 2 days, 1 mg/kg): 21.6% and 21.6 ± 3.1 %
Aortic Atherosclerosis (% lesion involvement as assessed by lpipd staining) (2 mg/kg s.c. every 2 days, 2 mg/kg): 14.9 ± 3.1 %
Aortic Atherosclerosis (% lesion involvement as assessed by lpipd staining) (4 mg/kg s.c. every 2 days, 4 mg/kg): 16% and 16.4 ± 2.8 %
Aortic Atherosclerosis (% lesion involvement as assessed by lpipd staining) (8 mg/kg s.c. every 2 days, 8 mg/kg): 12% and 12.03 ± 2.3 %
effect on VLDL-cholesterol (compared with control EKO mice): not significantly affecting
effect on circulating plasma HDL-cholesterol (compared with control EKO mice): significantly (p<0.01) increased
effect on circulating plasma LDL-cholesterol (compared with control EKO mice): significantly (p<0.01) increased
effect on total cholesterol (compared with control EKO mice): not significantly affecting
effect on triglycerides (compared with control EKO mice): not significantly affecting
HDL-C (1 mg/kg s.c. every 2 days): 23 ± 6 mg/dL
LDL-C (1 mg/kg s.c. every 2 days): 508 ± 18 mg/dL
Total Cholesterol (1 mg/kg s.c. every 2 days): 1434 ± 35 mg/dL
Triglycerides (1 mg/kg s.c. every 2 days): 132 ± 16 mg/dL
VLDL-C (1 mg/kg s.c. every 2 days): 903 ± 34 mg/dL
HDL-C (2 mg/kg s.c. every 2 days): 31 ± 5 mg/dL
LDL-C (2 mg/kg s.c. every 2 days): 517 ± 18 mg/dL
Total Cholesterol (2 mg/kg s.c. every 2 days): 1311 ± 80 mg/dL
Triglycerides (2 mg/kg s.c. every 2 days): 143 ± 20 mg/dL
VLDL-C (2 mg/kg s.c. every 2 days): 763 ± 64 mg/dL
HDL-C (4 mg/kg s.c. every 2 days): 38 ± 5 mg/dL
LDL-C (4 mg/kg s.c. every 2 days): 494 ± 10 mg/dL
Total Cholesterol (4 mg/kg s.c. every 2 days): 1281 ± 58 mg/dL
Triglycerides (4 mg/kg s.c. every 2 days): 136 ± 12 mg/dL
VLDL-C (4 mg/kg s.c. every 2 days): 749 ± 58 mg/dL
HDL-C (8 mg/kg s.c. every 2 days): 49 ± 3 mg/dL
LDL-C (8 mg/kg s.c. every 2 days): 475 ± 21 mg/dL
Total Cholesterol (8 mg/kg s.c. every 2 days): 1167 ± 75 mg/dL
Triglycerides (8 mg/kg s.c. every 2 days): 134 ± 9 mg/dL
VLDL-C (8 mg/kg s.c. every 2 days): 644 ± 58 mg/dL
circulating total cholesterol (rapamycin treated animals, 1, 2, 4, or 8-mg/kg qod for 12 weeks): 1300 to 1500 mg/dL
reduction in aortic atherosclerosis (rapamycin treated vs Control EKO mice): three-fold reduction
